Earlier results in article PMC8448162, “Single- and Multiple-Ascending-Dose Study of the Safety, Tolerability, and Pharmacokinetics of the Polymyxin Derivative SPR206” (Antimicrobial Agents and Chemotherapy, 2021).

Columns and labels:
kidney [1] = conditions: in vivo; cited from earlier work
kidney [2] = conditions: mouse model; cited from earlier work
[3] = tested on: bacterial burden in CFU/g; design: method as in earlier work; conditions: 20 mg/kg, infection models in mice; cited from earlier work

| Substance | incidence of acute kidney injury (kidney [1]) | histopathological changes in the kidney (kidney [2]) | change from baseline in Log10 (bacterial burden in CFU/g) [3] [Log10] |
| --- | --- | --- | --- |
| colistin | up to 60% |  |  |
| polymyxin B [reference compound] |  | all animals | −2.8 |
